Assays:
[1] = Blood plasma pharmacokinetics of midazolam for three administration systems (Example #1); settings: for Cl (obs) / Vz (obs): not corrected for bio-availability; for bio-availability: mean (95% CI); for AUC(0-t): AUClast
Method: In this study, twelve healthy subjects, 4 male and 8 female, were studied.
In separate sessions, the subjects received 3.4 mg of midazolam by one of three different administration systems, these being: • (i) an intravenous administration system in which a midazolam formulation was intravenously administered; • (ii) a conventional nasal spray administration system in which a midazolam formulation was conventionally nasally administered using a spray pump as supplied by Ing Erich Pfeiffer GmbH (Radolfsee, Germany) which is specified to generate a liquid spray with a mean particle size of 43 μm, with 100 μl of the formulation being delivered to each nostril; and • (iii) the bi-directional administration system of the first-described embodiment, and incorporating the same spray pump as the conventional nasal spray administration system, in which a midazolam formulation was nasally administered, with 100 μl of the formulation being delivered to each nostril.
Each study session was six hours in duration, and the sessions were separated by at least one week.
The intravenous formulation was a commercial midazolam HCl formulation (1 mg/ml (free base)) as supplied by Alpharma Inc (New Jersey, USA).
The nasal formulation was an aqueous solution containing midazolam base (1.7% w/v), sulfobutylether-β-cyclodextrin sodium salt with a molar substitution of 6.2 (Captisol®) (14% w/v) as supplied by CyDex Inc (Kansas, USA), hydroxypropyl methylcellulose (0.1% w/v), benzalkonium chloride (0.02% w/v), ethylene diaminetetraacetic acid (0.1% w/v) and phosphoric acid (0.73% w/v). The pH of the formulation was adjusted to a pH of between 4.20 and 4.35 with sodium hydroxide.
Venous blood samples, each having a volume of 9 ml, were drawn just prior to administration and at 2, 5, 10, 15, 20, 25, 30, 35, 45, 60, 90, 120, 240 and 360 minutes after administration, in order to allow for a determination of the blood plasma concentration of midazolam.
The blood plasma concentration of midazolam was determined according to Martens et al.
Samples, spiked with diazepam as an internal standard, were alkalised and extracted by toluene containing 0.1% w/v amyl alcohol. The resulting organic phase for each of the samples was then evaporated and the residue for each of the samples was derivatized with TBDMSTFA (/tert/-Butyldimethylsilyl)-N-methyltrifluoroacetamide with 1% w/v tert-butyldimethylsilyllchloride) at 60 °C. After the excess of TBDMSTFA was evaporated, the residue for each of the samples was dissolved in ethyl acetate and analyzed in a gas chromatograph, in this embodiment an HP 5890 gas chromatograph equipped with an HP 5972 mass-spectrometry detector as supplied by Hewlett Packard Inc (USA). The midazolam and diazepam components were quantified by the mass ions 310 and 256, respectively.
In this study, the midazolam clearance, the volume of distribution, the elimination rate, the maximum plasma concentration Cmax, the time maximum plasma concentration Tmax, and the area under the curve AUC (linear trapezoidal rule) were calculated by computerized curve fitting using the Win-Nonlin Standard 4.1 as supplied by Pharsight Corporation (California, USA). The systemic clearance (Cl)=dose/AUCiv, the apparent nasal clearances (Cln)=dose/AUCn, and the respective bioavailabilities (Fx)=(AUCx/dosey)/(AUCy/dosex) were determined from the calculated values.
In the results, the data is given as a median (min-max) or a mean (95% confidence interval (CI)). Regression analysis and ANOVA were used as appropriate. A bi-variate correlation (Pearson) was used to determine associations between variables. A paired sample t-test was used for group comparisons.

[2] = Subjective sedation score on numeric rating scale (NRS) 0-10 after midazolam (Example #1); assay type: in vivo, human
Method: Subjective sedation was scored by a numeric rating scale (NRS) 0-10, where 0 is fully awake and 10 is falling asleep or as tired as you can imagine at 0, 2, 5, 10, 15, 20, 25, 30, 35, 45, 60, 90, 120 and 360 minutes after administration.

[3] = bi-directional nasal administration system, 3.4 mg, mean
[4] = both, human, plasma, inhaled or intranasal, 3.4 mg, bi-directional nasal administration system, mean
[5] = both, human, plasma, inhaled or intranasal, 3.4 mg, conventional nasal spray administration system, mean
[6] = both, human, plasma, iv, 3.4 mg
[7] = both, human, plasma, iv, 3.4 mg, intravenous administration system, mean
[8] = conventional nasal spray administration system, 3.4 mg, mean

**Q.** Which results are given for `Cc1ncc2n1-c1ccc(Cl)cc1C(c1ccccc1F)=NC2` [midazolam]?
**A.** AUCinf [1, 3]: 5364 ng·min/mL; Cl (obs) [1, 3]: 589 mL/min; Vz (obs) [1, 3]: 98551 mL; bio-availability ([1]; bi-directional spray administration system vs intravenous): 0.69 (0.57, 0.81); AUC(0-inf) ([1]; both, human, plasma, inhaled or intranasal, 3.4 mg): 87.8 ng·h/mL; AUC(0-t) [1, 4]: 76.9 ng·h/mL; AUC(0-t) [1, 5]: 77.1 ng·h/mL; Cmax [1, 4]: 44 ng/mL; Cmax [1, 5]: 53 ng/mL; half-life ([1]; both, human, plasma, inhaled or intranasal, 3.4 mg, T1/2, bi-directional nasal administration system, mean): 1.98 h; half-life ([1]; both, human, plasma, inhaled or intranasal, 3.4 mg, T1/2, conventional nasal spray administration system, mean): 1.9 h; Tmax [1, 4]: 0.267 h; Tmax [1, 5]: 0.25 h; AUC(0-inf) [1, 6]: 136 ng·h/mL; Vd [1, 6]: 65.4 L; clearance [1, 6]: 451 mL/min; AUC(0-t) [1, 7]: 122 ng·h/mL; Cmax [1, 7]: 152 ng/mL; half-life ([1]; both, human, plasma, iv, 3.4 mg, T1/2, intravenous administration system, mean): 1.73 h; Tmax [1, 7]: 0.0417 h; Cl (obs) [1, 8]: 551 mL/min; Vz (obs) [1, 8]: 90691 mL; bio-availability ([1]; conventional spray administration system vs intravenous): 0.68 (037, 0.80); CNS effect (sedation score as a function of blood plasma concentration) ([2]; bi-directional administration system compared with conventional nasal spray): substantially greater CNS effect than the conventional nasal spray administration system; sedation scores ([2]; bi-directional administration system compared with intravenous, 3.4 mg, median NRS): equivalent to those of the intravenous administration system; onset of action ([2]; bi-directional administration system compared with the other systems, 3.4 mg): considerably faster than the conventional nasal spray administration system; ratio of peak CNS effect to Cmax relative to intravenous administration ([2]; bi-directional administration system, 3.4 mg): about 3.5 times

Source: patent US10478574B2, “Nasal administration” (OptiNose AS, priority 2006, dated 2019)
